“And” between values parts separate entries of the source, which are not always exact repeats. Equal values may be shown once.
What was measured:
Format in all cases: biochemical
PI3K β = PI3K β (Homo sapiens, UniProt P42338); assay: In vitro IC50, PI3K β
Text: (§1) An exemplary system is PI 3-Kinase (human) HTRF™ Assay from Upstate.

PI3K α = target: T1, PI3K α (Homo sapiens, UniProt P42336); assay: In vitro IC50, PI3K α
T1 construct: purchased Upstate
Text: as §1

PI3K δ = PI3K δ (Homo sapiens, UniProt O00329); assay: In vitro IC50, PI3K δ; design: purchased Upstate
Sequence of PI3K δ (O00329 whole entry): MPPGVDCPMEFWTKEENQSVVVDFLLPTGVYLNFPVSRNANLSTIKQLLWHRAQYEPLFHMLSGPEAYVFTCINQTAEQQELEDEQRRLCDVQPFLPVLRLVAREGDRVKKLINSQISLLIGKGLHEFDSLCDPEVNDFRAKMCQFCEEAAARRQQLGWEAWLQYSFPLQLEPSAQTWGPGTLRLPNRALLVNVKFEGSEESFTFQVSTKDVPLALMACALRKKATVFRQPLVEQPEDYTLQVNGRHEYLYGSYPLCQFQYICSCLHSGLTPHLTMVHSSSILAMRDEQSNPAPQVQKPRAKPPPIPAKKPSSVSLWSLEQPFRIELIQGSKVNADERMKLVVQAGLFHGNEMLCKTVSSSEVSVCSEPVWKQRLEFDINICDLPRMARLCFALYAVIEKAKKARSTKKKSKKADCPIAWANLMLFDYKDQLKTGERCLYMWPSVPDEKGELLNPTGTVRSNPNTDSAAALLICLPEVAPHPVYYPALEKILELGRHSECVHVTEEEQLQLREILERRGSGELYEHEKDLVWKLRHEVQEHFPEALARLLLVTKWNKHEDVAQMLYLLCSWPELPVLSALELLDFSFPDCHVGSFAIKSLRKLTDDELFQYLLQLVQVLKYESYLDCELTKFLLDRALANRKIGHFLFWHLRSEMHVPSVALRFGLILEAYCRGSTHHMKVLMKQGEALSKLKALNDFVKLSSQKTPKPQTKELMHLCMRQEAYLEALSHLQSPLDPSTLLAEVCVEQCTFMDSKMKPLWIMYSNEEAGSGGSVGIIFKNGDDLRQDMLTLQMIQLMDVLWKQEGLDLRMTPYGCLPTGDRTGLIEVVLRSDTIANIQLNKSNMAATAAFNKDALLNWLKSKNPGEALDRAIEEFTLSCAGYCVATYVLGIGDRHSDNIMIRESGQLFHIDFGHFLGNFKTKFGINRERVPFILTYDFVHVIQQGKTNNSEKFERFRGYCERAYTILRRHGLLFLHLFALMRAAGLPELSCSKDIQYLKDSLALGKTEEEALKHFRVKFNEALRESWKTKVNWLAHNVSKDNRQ
Sequence of PI3K δ (P27986 whole entry partner): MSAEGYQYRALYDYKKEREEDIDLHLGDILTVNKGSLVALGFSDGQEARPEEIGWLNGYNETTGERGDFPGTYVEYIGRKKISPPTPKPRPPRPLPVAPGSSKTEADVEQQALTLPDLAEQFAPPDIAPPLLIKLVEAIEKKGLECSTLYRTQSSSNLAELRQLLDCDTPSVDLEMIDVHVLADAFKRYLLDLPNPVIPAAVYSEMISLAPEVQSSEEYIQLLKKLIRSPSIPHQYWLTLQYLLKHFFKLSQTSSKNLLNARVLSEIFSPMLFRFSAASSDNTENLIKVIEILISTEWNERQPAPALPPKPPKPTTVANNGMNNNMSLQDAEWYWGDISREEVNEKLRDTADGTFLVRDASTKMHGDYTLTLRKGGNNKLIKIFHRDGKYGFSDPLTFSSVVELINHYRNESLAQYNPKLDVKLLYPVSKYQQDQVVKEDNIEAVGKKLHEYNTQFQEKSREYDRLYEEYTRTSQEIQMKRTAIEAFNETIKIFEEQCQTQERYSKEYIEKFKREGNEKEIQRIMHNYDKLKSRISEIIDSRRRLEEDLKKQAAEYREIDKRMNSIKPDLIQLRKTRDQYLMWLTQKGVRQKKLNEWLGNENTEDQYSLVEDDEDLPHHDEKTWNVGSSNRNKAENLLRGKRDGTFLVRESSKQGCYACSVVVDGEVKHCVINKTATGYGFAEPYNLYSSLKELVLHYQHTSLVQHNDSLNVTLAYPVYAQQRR
Text: as §1

PI3K γ = target: T2, PI3K γ (Homo sapiens, UniProt P48736); assay: In vitro IC50, PI3K γ
T2 construct: purchased Sigma
T2 sequence (P48736 whole entry): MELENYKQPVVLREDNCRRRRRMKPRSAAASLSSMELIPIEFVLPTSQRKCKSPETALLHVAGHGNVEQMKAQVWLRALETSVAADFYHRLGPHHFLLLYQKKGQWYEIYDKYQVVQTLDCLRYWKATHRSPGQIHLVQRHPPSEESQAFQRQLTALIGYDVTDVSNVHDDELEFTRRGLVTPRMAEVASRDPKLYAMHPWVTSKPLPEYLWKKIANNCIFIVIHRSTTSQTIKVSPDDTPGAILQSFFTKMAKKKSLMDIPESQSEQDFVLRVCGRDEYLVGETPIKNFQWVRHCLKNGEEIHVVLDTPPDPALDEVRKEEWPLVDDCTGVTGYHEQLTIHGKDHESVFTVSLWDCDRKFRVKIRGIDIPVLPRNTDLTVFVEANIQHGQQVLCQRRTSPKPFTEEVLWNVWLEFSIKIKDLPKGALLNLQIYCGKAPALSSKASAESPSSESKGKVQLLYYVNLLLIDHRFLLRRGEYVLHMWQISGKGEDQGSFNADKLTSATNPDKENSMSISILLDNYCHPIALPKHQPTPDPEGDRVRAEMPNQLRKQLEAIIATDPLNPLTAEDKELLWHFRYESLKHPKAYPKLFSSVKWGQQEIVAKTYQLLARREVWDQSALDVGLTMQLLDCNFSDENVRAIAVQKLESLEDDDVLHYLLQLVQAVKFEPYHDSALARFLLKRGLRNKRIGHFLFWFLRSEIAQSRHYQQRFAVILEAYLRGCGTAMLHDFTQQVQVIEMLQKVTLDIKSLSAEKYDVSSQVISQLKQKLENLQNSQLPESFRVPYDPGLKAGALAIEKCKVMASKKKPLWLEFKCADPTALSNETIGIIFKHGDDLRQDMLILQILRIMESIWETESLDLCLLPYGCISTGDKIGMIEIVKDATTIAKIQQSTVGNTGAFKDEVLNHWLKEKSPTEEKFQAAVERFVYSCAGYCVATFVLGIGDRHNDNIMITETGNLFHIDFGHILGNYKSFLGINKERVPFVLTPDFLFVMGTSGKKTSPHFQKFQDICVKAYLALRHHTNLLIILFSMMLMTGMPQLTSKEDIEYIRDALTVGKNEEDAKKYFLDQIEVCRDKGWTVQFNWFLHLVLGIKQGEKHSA
Text: as §1

Sequence of PI3K β (P42338 whole entry): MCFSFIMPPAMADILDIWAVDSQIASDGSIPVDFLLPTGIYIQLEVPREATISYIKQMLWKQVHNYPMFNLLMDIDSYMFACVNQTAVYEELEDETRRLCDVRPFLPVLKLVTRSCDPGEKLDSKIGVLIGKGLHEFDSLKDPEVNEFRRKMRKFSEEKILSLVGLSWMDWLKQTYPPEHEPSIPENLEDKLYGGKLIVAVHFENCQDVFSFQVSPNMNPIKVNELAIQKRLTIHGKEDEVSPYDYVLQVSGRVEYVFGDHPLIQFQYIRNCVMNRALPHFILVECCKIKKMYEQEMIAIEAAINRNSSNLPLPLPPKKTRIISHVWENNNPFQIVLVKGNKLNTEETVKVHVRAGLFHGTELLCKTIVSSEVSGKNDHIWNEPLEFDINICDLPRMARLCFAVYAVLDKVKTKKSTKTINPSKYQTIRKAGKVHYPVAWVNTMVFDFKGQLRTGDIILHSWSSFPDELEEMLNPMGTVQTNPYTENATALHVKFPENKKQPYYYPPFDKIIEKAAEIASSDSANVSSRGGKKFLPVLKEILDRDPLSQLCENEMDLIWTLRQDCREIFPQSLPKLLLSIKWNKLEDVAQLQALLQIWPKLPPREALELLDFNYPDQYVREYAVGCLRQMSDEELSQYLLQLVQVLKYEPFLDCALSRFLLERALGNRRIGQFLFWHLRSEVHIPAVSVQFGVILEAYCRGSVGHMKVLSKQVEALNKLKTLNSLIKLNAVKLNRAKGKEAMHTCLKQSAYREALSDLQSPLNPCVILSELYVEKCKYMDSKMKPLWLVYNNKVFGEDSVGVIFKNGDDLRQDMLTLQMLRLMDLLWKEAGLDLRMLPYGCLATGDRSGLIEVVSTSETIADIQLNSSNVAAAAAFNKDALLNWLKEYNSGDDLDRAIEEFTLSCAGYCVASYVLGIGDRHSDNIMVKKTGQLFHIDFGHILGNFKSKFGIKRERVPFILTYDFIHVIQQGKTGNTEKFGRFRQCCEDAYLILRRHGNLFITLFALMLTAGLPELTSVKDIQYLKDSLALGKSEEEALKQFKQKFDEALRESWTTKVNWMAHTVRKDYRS
T1 sequence (P42336 whole entry): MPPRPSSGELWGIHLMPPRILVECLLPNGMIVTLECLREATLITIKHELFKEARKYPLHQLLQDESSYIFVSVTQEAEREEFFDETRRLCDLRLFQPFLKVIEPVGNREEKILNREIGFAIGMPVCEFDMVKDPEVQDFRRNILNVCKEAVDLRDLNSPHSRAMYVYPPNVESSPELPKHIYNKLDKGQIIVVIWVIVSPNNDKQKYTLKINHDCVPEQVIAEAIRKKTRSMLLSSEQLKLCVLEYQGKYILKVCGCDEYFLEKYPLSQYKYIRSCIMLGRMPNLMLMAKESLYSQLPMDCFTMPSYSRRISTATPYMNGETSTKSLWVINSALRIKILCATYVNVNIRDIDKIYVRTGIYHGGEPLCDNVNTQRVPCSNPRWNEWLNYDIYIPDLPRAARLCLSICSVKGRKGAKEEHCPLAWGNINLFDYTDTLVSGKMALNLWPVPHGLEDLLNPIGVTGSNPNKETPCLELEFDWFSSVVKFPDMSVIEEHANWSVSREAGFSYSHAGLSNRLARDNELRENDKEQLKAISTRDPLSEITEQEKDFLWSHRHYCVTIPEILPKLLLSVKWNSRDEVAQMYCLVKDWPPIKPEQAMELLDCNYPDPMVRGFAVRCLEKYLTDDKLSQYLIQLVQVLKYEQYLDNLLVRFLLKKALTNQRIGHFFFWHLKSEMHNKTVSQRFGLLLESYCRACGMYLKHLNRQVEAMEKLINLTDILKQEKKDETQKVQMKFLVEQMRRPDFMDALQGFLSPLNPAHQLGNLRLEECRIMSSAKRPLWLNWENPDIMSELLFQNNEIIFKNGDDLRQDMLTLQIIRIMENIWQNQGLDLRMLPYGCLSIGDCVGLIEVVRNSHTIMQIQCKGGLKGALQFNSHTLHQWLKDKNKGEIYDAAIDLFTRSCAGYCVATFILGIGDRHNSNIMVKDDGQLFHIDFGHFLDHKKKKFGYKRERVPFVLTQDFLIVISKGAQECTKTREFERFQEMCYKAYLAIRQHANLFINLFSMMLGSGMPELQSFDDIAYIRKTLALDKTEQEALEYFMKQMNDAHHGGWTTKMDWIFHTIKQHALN
T1 sequence (P27986 whole entry partner): as the sequence (P27986 whole entry partner) above

SMILES	IC50 (PI3K β) [nM]	IC50 (PI3K α) [nM]	IC50 (PI3K δ) [nM]	IC50 (PI3K γ)
Cc1ccccc1-n1c(Cn2nc(-c3cc(O)cc(F)c3)c3c(N)ncnc32)cc2cccc(C)c2c1=O [Compound 7]	< 1000	< 10000	–	–
Cc1cccnc1-n1c(Cn2nc(I)c3c(N)ncnc32)cc2cccc(C)c2c1=O [Compound 15]	–	> 10000	< 1000	< 1000 nM
Cc1cccnc1-n1c(Cn2nc(-c3cc(O)cc(F)c3)c3c(N)ncnc32)cc2cccc(C)c2c1=O [Compound 16]	–	> 10000	< 100	< 100 nM
Cc1cccnc1-n1c(Cn2nc(Br)c3c(N)ncnc32)cc2cccc(C)c2c1=O [Compound 17]	–	> 10000	< 1000	< 10000 nM
Cc1cccnc1-n1c(Cn2nc(Cl)c3c(N)ncnc32)cc2cccc(C)c2c1=O [Compound 18]	–	> 10000	< 1000	> 10000 nM
Cc1ccccc1-n1c(Cn2nc(Br)c3c(N)ncnc32)cc2cccc(C)c2c1=O [Compound 19]	–	> 10000	< 100	< 100 nM
Cc1ccccc1-n1c(Cn2nc(Cl)c3c(N)ncnc32)cc2cccc(C)c2c1=O [Compound 20]	–	> 10000	< 100	< 1000 nM
Cc1ccccc1-n1c(Cn2nc(-c3ccc(O)c(F)c3)c3c(N)ncnc32)cc2cccc(C)c2c1=O [Compound 30]	–	> 10000	< 100	< 100 nM
Cc1ccccc1-n1c(Cn2nc(I)c3c(N)ncnc32)cc2ccccc2c1=O [Compound 31]	–	> 10000	< 1000	< 100 nM
Cc1ccccc1-n1c(Cn2nc(C#C[C@@H](C)O)c3c(N)ncnc32)cc2ccccc2c1=O [Compound 32]	–	> 10000	< 1000	–
Cc1ccccc1-n1c(Cn2nc(-c3cc(O)cc(F)c3)c3c(N)ncnc32)cc2ccccc2c1=O [Compound 33]	–	> 10000	< 100	< 100 nM
Cc1cccc2cc(Cn3nc(-c4cccc(Cl)c4)c4c(N)ncnc43)n(-c3ccccc3F)c(=O)c12 [Compound 38]	> 10000	–	< 10000	> 10000 nM and < 10000 nM
COc1ccc(-c2nn(Cc3cc4cccc(C)c4c(=O)n3-c3ccccc3C)c3ncnc(N)c23)cc1 [Compound 45]	–	> 10000	< 1000	< 100 nM
COc1ccc(-c2nn(Cc3cc4cccc(C)c4c(=O)n3-c3ccccc3F)c3ncnc(N)c23)cc1OC [Compound 47]	–	> 10000	< 1000	< 1000 nM
Cc1ccccc1-n1c(Cn2nc(-c3cnc4[nH]ccc4c3)c3c(N)ncnc32)cc2cccc(C)c2c1=O [Compound 48]	–	> 10000	< 100	< 100 nM
Cc1ccccc1-n1c(Cn2nc(-c3ccc(Cl)cc3)c3c(N)ncnc32)cc2cccc(C)c2c1=O [Compound 49]	–	> 10000	< 1000	< 1000 nM
Cc1ccccc1-n1c(Cn2nc(-c3ccc4cc[nH]c4c3)c3c(N)ncnc32)cc2cccc(C)c2c1=O [Compound 50]	–	> 10000	< 100	< 100 nM
Cc1ccccc1-n1c(Cn2nc(-c3cccc(O)c3)c3c(N)ncnc32)cc2ccccc2c1=O [Compound 51]	–	> 10000	< 100	< 1000 nM
Cc1cccc2cc(Cn3nc(I)c4c(N)ncnc43)n(-c3ccccc3C(C)C)c(=O)c12 [Compound 75]	< 10000	–	< 100	< 100 nM

SMILES	IC50 (PI3K β) [nM]	IC50 (PI3K α) [nM]	IC50 (PI3K δ) [nM]	IC50 (PI3K γ)
Cc1cccc2cc(Cn3nc(I)c4c(N)ncnc43)n(-c3ccccc3Cl)c(=O)c12 [Compound 76]	> 10000	–	< 100	< 1000 nM
CCc1ccccc1-n1c(Cn2nc(I)c3c(N)ncnc32)cc2cccc(C)c2c1=O [Compound 77]	< 10000	–	< 100	< 100 nM
Cc1ccncc1-n1c(Cn2nc(I)c3c(N)ncnc32)cc2cccc(C)c2c1=O [Compound 78]	> 10000	–	< 100	< 1000 nM
Cc1ccccc1-n1c(Cn2nc(C#C[C@H](C)O)c3c(N)ncnc32)cc2cccc(C)c2c1=O [Compound 85]	< 10000	> 10000	< 1000	–
Cc1cccc2cc(Cn3nc(-c4cc(O)cc(F)c4)c4c(N)ncnc43)n(C3CCCCC3)c(=O)c12 [Compound 110]	< 10000	> 10000	< 100	–
CNC(=O)Nc1nc2ccc(-c3nn(Cc4cc5cccc(C)c5c(=O)n4-c4ccccc4C)c4ncnc(N)c34)cc2s1 [Compound 148]	–	< 100	< 100	< 100 nM
CC(=O)Nc1nc2ccc(-c3nn(Cc4cc5cccc(C)c5c(=O)n4-c4cccc(F)c4)c4ncnc(N)c34)cc2s1 [Compound 178]	< 10000	–	< 100	< 100 nM
Cc1cccc2cc([C@H](C)Nc3ncnc4[nH]cnc34)n(C3CC3)c(=O)c12 [Compound 200]	< 100	–	< 100	< 100 nM
Cc1cccc2cc(C(C)Nc3ncnc4[nH]cnc34)n(-c3ccccc3F)c(=O)c12 (stereo not shown) [Compound 203]	–	< 10000	–	–
CCC(Nc1ncnc2[nH]cnc12)c1cc2cccc(C)c2c(=O)n1-c1c(F)cccc1F (stereo not shown) [Compound 217]	> 10000	–	< 10000	–
Cc1cccc2cc([C@H](C)Nc3ncnc4[nH]cnc34)n(C(C)C)c(=O)c12 [Compound 230]	–	–	< 100	< 100 nM
Cc1cccc2cc(C(C)Nc3ncnc4[nH]cnc34)n(C3CCCC3)c(=O)c12 (stereo not shown) [Compound 231]	–	–	< 100	< 100 nM
Cc1cccc2cc(C(C)Nc3ncnc4[nH]cnc34)n(CCN3CCOCC3)c(=O)c12 (stereo not shown) [Compound 232]	–	–	< 100	< 10000 nM
Cc1cccc2cc(C(C)Nc3ncnc4[nH]cnc34)n(CCN3CCCC3)c(=O)c12 (stereo not shown) [Compound 233]	–	–	< 100	> 10000 nM
Cc1cccc2cc(C(C)Nc3ncnc4[nH]cnc34)n(C3CCOCC3)c(=O)c12 (stereo not shown) [Compound 234]	–	–	< 100	< 1000 nM
Cc1cccc2cc(Cn3nc(-c4ccc5nc(N)oc5c4)c4c(N)ncnc43)n(-c3ccccc3)c(=O)c12 [Compound 236]	–	–	< 1000	< 1000 nM
Cc1cccc2cc(Cn3nc(-c4ccc5nc(N)cn5c4)c4c(N)ncnc43)n(-c3ccccc3)c(=O)c12 [Compound 239]	–	> 10000	< 1000	< 10000 nM
Cc1cccc2cc([C@H](C)NC(=O)c3cnn4ccccc34)n(-c3ccccc3)c(=O)c12 [Compound 241]	–	> 10000	> 10000	< 10000 nM
Cc1nc2c(N[C@@H](C)c3cc4cccc(C)c4c(=O)n3-c3ccccc3)ncnc2[nH]1 [Compound 242]	–	> 10000	< 10000	< 10000 nM

SMILES	IC50 (PI3K β) [nM]	IC50 (PI3K α) [nM]	IC50 (PI3K δ) [nM]	IC50 (PI3K γ)
Cc1cccc2cc([C@H](C)Nc3nc(F)nc4[nH]cnc34)n(-c3ccccc3)c(=O)c12 [Compound 245]	–	< 10000	< 100	< 100 nM
Cc1cccc2cc([C@H](C)Nc3c(C#N)cnc4ccccc34)n(-c3ccccc3)c(=O)c12 [Compound 246]	–	> 10000	< 10000	< 10000 nM
CNc1ncc(Cl)c(N[C@@H](C)c2cc3cccc(C)c3c(=O)n2-c2ccccc2)n1 [Compound 250]	–	> 10000	< 1000	< 1000 nM
Cc1cccc2cc([C@H](C)Nc3ncnc4[nH]ncc34)n(-c3ccccc3)c(=O)c12 [Compound 258]	–	> 10000	< 1000	< 10000 nM
C=Cc1nn(Cc2cc3cccc(C)c3c(=O)n2-c2ccccc2)c2ncnc(N)c12 [Compound 301]	–	–	< 100	< 1000 nM
Cc1cccc2cc(Cn3nc(-c4ccc5nc(N)[nH]c5c4)c4c(N)ncnc43)n(-c3ccccc3)c(=O)c12 [Compound 302]	–	–	< 100	< 100 nM
CCc1nn(Cc2cc3cccc(C)c3c(=O)n2-c2ccccc2)c2ncnc(N)c12 [Compound 303]	–	–	< 100	< 10000 nM
CNC(=O)c1nn(Cc2cc3cccc(C)c3c(=O)n2-c2ccccc2C)c2ncnc(N)c12 [Compound 305]	–	–	< 10000	< 10000 nM
Cc1ccccc1-n1c(Cn2nc(C(F)F)c3c(N)ncnc32)cc2cccc(C)c2c1=O [Compound 306]	–	–	< 100	< 100 nM
Cc1cccc2cc(Cn3nc(C(N)=O)c4c(N)ncnc43)n(-c3ccccc3)c(=O)c12 [Compound 307]	–	–	< 1000	< 10000 nM
CNC(=O)c1nn(Cc2cc3cccc(C)c3c(=O)n2-c2ccccc2)c2ncnc(N)c12 [Compound 309]	–	> 10000	< 1000	< 10000 nM
Cc1ccccc1-n1c(Cn2nc(CF)c3c(N)ncnc32)cc2cccc(C)c2c1=O [Compound 310]	> 10000	–	< 100	< 100 nM
Cc1cccc2cc(Cn3nc(CF)c4c(N)ncnc43)n(-c3ccccc3)c(=O)c12 [Compound 311]	> 10000	–	< 100	< 100 nM
Cc1ccccc1-n1c(Cn2nc(CC#N)c3c(N)ncnc32)cc2cccc(C)c2c1=O [Compound 312]	> 10000	–	< 100	< 10000 nM
Cc1ccccc1-n1c(Cn2nc(CO)c3c(N)ncnc32)cc2cccc(C)c2c1=O [Compound 313]	–	> 10000	< 1000	< 10000 nM
COCc1nn(Cc2cc3cccc(C)c3c(=O)n2-c2ccccc2C)c2ncnc(N)c12 [Compound 314]	–	> 10000	> 10000	> 10000 nM
Cc1cccc2cc(Cn3nc(C(C)(C)O)c4c(N)ncnc43)n(-c3ccccc3)c(=O)c12 [Compound 318]	–	> 10000	> 10000	> 10000 nM
CC(=O)c1nn(Cc2cc3cccc(C)c3c(=O)n2-c2ccccc2)c2ncnc(N)c12 [Compound 319]	–	> 10000	< 1000	< 10000 nM

Reference: US20140120083A1, “TREATMENT OF CANCERS USING PI3 KINASE ISOFORM MODULATORS” (INFINITY PHARMACEUTICALS, INC., priority 2012, published 2014)
